Laboratory results reported in patent US20240299359A1, “PHARMACEUTICAL COMPOSITION FOR ANIMALS CONTAINING 5-HYDROXY-METHYLIMIDAZOLIDINE-2,4-DIONE COMPOUND AS ACTIVE INGREDIENT” (KYONGBO PHARM. CO., LTD., priority 2021, published 2024).
Values joined by “and” are separate entries in the source; they are usually repeats but may differ in a detail not shown here. Equal entries are not always repeated.

Test system: beagles
Experiment: 13-week repeated oral toxicity: hematological test
Type: in vivo, beagle
Procedure: Fasting was conducted the day before administration (blood test date, pre), the 4th week (day 29) after administration, the 8th week (day 57) after administration, and the 13th week (day 92) after administration, and when the remaining feed was present in the feed container 3 hours after feeding on the day of fasting, it was removed.
All subjects were fasted for 16 hours and measurements were then performed pre (before administration), 4 weeks (day 29) after administration, 8 weeks (day 57) after administration, and 13 weeks (day 92) after administration. Within 3 hours after 2 to 3 ml of blood collected from the jugular vein of each subject was injected into a CBC bottle containing EDTA, RBC, HGB, HCT, RBC indices (MCV, MCH, MCHC), and platelet count and WBC differential count were measured using an automatic hematometer.

[1] = G3 500 mg/kg, repeated administration for 13 weeks, female, group mean
[2] = G3 500 mg/kg, repeated administration for 13 weeks, female, individual animals
[3] = G3 500 mg/kg, repeated administration for 13 weeks, male, group mean
[4] = G3 500 mg/kg, repeated administration for 13 weeks, male, individual animals
[5] = G4 1,000 mg/kg group, female (F10-F12, Mean), before administration (day 0)
[6] = G4 1,000 mg/kg group, female (F10-F12, Mean), before administration (day 0), mean
[7] = G4 1,000 mg/kg group, male (M10-M12, Mean), before administration (day 0)
[8] = G4 1,000 mg/kg group, male (M10-M12, Mean), before administration (day 0), mean
[9] = G4 1,000 mg/kg, repeated administration for 13 weeks, female, group mean
[10] = G4 1,000 mg/kg, repeated administration for 13 weeks, female, individual animals
[11] = G4 1,000 mg/kg, repeated administration for 13 weeks, male, group mean
[12] = G4 1,000 mg/kg, repeated administration for 13 weeks, male, individual animals

CN1C(=O)NC(=O)C1O (stereo not drawn) [KBP-001, 5-hydroxy-1-methylimidazolidine-2,4-dione]
MCH [1]: 23.5 pg
MCHC [1]: 33.37 g/dL
MCV [1]: 70.2 fL
Retic [1]: 0.59%
WBC Differential Counting(%) Baso [1]: 0.43%
WBC Differential Counting(%) Eos [1]: 3.03%
WBC Differential Counting(%) Lymph [1]: 33.40%
WBC Differential Counting(%) Mono [1]: 4.37%
WBC Differential Counting(%) Neut [1]: 58.50%
HCT [2]: 42.0% and 49.4% and 52.6%
HGB [2]: 14.2 g/dL and 16.3 g/dL and 17.5 g/dL
MCH [2]: 23.8 pg and 23.9 pg and 22.7 pg
MCHC [2]: 33.7 g/dL and 33.1 g/dL and 33.3 g/dL
MCV [2]: 70.4 fL and 72 fL and 68.2 fL
Retic [2]: 0.84% and 0.40% and 0.53%
WBC Differential Counting(%) Baso [2]: 0.3% and 0.5% and 0.4%
WBC Differential Counting(%) Eos [2]: 3.2% and 2.8% and 3.1%
WBC Differential Counting(%) Lymph [2]: 37.9% and 30.3% and 32.0%
WBC Differential Counting(%) Mono [2]: 4.3% and 3.5% and 5.2%
WBC Differential Counting(%) Neut [2]: 62.4%
HCT [3]: 48.10%
HGB [3]: 16.27 g/dL
MCH [3]: 23.8 pg
MCHC [3]: 33.83 g/dL
MCV [3]: 70.4 fL
Retic [3]: 0.41%
WBC Differential Counting(%) Baso [3]: 1.10%
WBC Differential Counting(%) Eos [3]: 5.07%
WBC Differential Counting(%) Lymph [3]: 30.00%
WBC Differential Counting(%) Mono [3]: 7.23%
WBC Differential Counting(%) Neut [3]: 55.697%
HCT [4]: 42.2% and 49.5% and 52.6%
HGB [4]: 14.2 g/dL and 16.9 g/dL and 17.7 g/dL
MCH [4]: 23.5 pg and 24.4 pg and 23.6 pg
MCHC [4]: 33.7 g/dl (2×) and 34.1 g/dl
MCV [4]: 70 fL and 71.5 fL and 69.9 fL
Retic [4]: 0.54% and 0.46% and 0.23%
WBC Differential Counting(%) Baso [4]: 0.3% and 0.4% and 2.6%
WBC Differential Counting(%) Eos [4]: 3.9% and 7.5% and 3.8%
WBC Differential Counting(%) Lymph [4]: 23.4% and 27.1% and 39.5%
WBC Differential Counting(%) Mono [4]: 7.8% (2×) and 6.1%
WBC Differential Counting(%) Neut [4]: 64.3% and 56.8% and 46.8%
HCT [5]: 47.7% and 44.4% and 48.4%
HGB [5]: 16.1 g/dL and 14.9 g/dL and 16.2 g/dL
MCH [5]: 22.9 pg and 23.2 pg and 22.2 pg
MCHC [5]: 33.7 g/dL and 33.5 g/dL
MCV [5]: 68 fL and 69.2 fL and 66.3 fL
Retic [5]: 1.79% and 1.14% and 0.92%
WBC Differential Counting Baso [5]: 0.5% and 0.7% and 0.9%
WBC Differential Counting Eos [5]: 3.8% and 3.2% and 2.1%
WBC Differential Counting Lymph [5]: 30.9% and 31.1% and 43.6%
WBC Differential Counting Mono [5]: 4.6% and 4.0% and 5.5%
WBC Differential Counting Neut [5]: 59.3% and 60.5% and 47.3%
HCT [6]: 39.40%
HGB [6]: 13.17 g/dL
MCH [6]: 18.4 pg
MCHC [6]: 25.57 g/dL
MCV [6]: 55.4 fL
Retic [6]: 0.77%
WBC Differential Counting Baso [6]: 0.74%
WBC Differential Counting Eos [6]: 3.70%
WBC Differential Counting Lymph [6]: 28.17%
WBC Differential Counting Mono [6]: 4.91%
WBC Differential Counting Neut [6]: 46.85%
HCT [7]: 45.1% and 46.8% and 43.2%
HGB [7]: 15.0 g/dL and 15.6 g/dL and 14.5 g/dL
MCH [7]: 22.4 pg and 22.5 pg and 21.7 pg
MCHC [7]: 33.2 g/dL and 33.3 g/dL and 33.6 g/dL
MCV [7]: 67.6 fL and 67.4 fL and 64.7 fL
Retic [7]: 0.51% and 0.65% and 0.56%
WBC Differential Counting Baso [7]: 0.8% and 0.4% and 0.7%
WBC Differential Counting Eos [7]: 3.5% and 3.9% and 4.8%
WBC Differential Counting Lymph [7]: 34.8% and 31.7% and 35.5%
WBC Differential Counting Mono [7]: 6.5% and 7.8% and 4.5%
WBC Differential Counting Neut [7]: 53.8% and 55.9% and 54.0%
HCT [8]: 39.19%
HGB [8]: 13.07 g/dL
MCH [8]: 18.2 pg
MCHC [8]: 27.30 g/dL
MCV [8]: 54.9 fL
Retic [8]: 0.74%
WBC Differential Counting Baso [8]: 0.78%
WBC Differential Counting Eos [8]: 3.68%
WBC Differential Counting Lymph [8]: 28.23%
WBC Differential Counting Mono [8]: 5.10%
WBC Differential Counting Neut [8]: 46.56%
HCT [9]: 41.40%
HGB [9]: 14.00 g/dL
MCH [9]: 23.3 pg
MCHC [9]: 33.83 g/dL
MCV [9]: 68.8 fL
Retic [9]: 0.36%
WBC Differential Counting(%) Baso [9]: 0.40%
WBC Differential Counting(%) Eos [9]: 2.07%
WBC Differential Counting(%) Lymph [9]: 36.50%
WBC Differential Counting(%) Mono [9]: 4.57%
WBC Differential Counting(%) Neut [9]: 55.93%
HCT [10]: 39.9% (2×) and 44.4%
HGB [10]: 13.4 g/dL and 13.6 g/dL and 15.0 g/dL
MCHC [10]: 33.5 g/dL and 34.2 g/dL and 33.8 g/dL
MCV [10]: 69.5 fL and 68.2 fL and 68.7 fL
Retic [10]: 0.53% and 0.27% and 0.28%
WBC Differential Counting(%) Baso [10]: 0.4% and 0.5% and 0.3%
WBC Differential Counting(%) Eos [10]: 3.1% and 0.8% and 2.3%
WBC Differential Counting(%) Lymph [10]: 31.4% and 42.6% and 35.8%
WBC Differential Counting(%) Mono [10]: 3.9% (2×) and 5.9%
WBC Differential Counting(%) Neut [10]: 60.7% and 51.8% and 55.3%
HCT [11]: 46.33%
HGB [11]: 15.80 g/dL
MCH [11]: 23.4 pg
MCHC [11]: 34.07 g/dL
MCV [11]: 68.6 fL
Retic [11]: 0.31%
WBC Differential Counting(%) Baso [11]: 0.43%
WBC Differential Counting(%) Eos [11]: 4.73%
WBC Differential Counting(%) Lymph [11]: 32.17%
WBC Differential Counting(%) Mono [11]: 6.07%
WBC Differential Counting(%) Neut [11]: 56.33%
HCT [12]: 43.1% and 47.6% and 48.3%
HGB [12]: 14.4 g/dL and 16.9 g/dL and 16.1 g/dL
MCH [12]: 23.3 pg and 24.5 pg and 22.3 pg
MCHC [12]: 33.3 g/dL and 35.5 g/dL and 33.4 g/dL
MCV [12]: 70 fL and 69.1 fL and 66.8 fL
Retic [12]: 0.27% and 0.32% and 0.33%
WBC Differential Counting(%) Baso [12]: 0.5% and 0.4% (2×)
WBC Differential Counting(%) Eos [12]: 4.0% and 4.4% and 5.8%
WBC Differential Counting(%) Lymph [12]: 33.7% and 29.5% and 33.2%
WBC Differential Counting(%) Mono [12]: 5.8% and 6.8% and 5.6%
WBC Differential Counting(%) Neut [12]: 55.7% and 58.6% and 54.7%
